The values that follow are results of earlier work, collected in publication PMC8193821 (Annals of the New York Academy of Sciences, 2019).

The first series concerns Sporadic ALS patients’ iPSC-derived MNs. As to conditions: 1757 bioactive compounds; ref Burkhardt M.F. et al. (2013) Mol and Cellul Neuroscience.
On to `CC(C)[C@]12O[C@H]1[C@@H]1O[C@]13[C@]1(O[C@H]1C[C@H]1C4=C(CC[C@@]13C)C(=O)OC4)[C@@H]2O` [Triptolide], for which the TDP-43 aggregation entry is “↓TDP-43 aggregation”.

The series is the same for the next values; noted with them: HCS of >1,700 compounds; iPSC-derived MNs from sporadic ALS patients; ref [256].
Turning to `CC(C)[C@]12O[C@H]1[C@@H]1O[C@]13[C@]1(O[C@H]1C[C@H]1C4=C(CC[C@@]13C)C(=O)OC4)[C@@H]2O` [Triptolide], the TDP-43 aggregation result was “capable of reducing TDP-43 aggregation”. On to `C[C@H]1O[C@@H](O[C@H]2[C@@H](O)C[C@H](O[C@H]3[C@@H](O)C[C@H](O[C@H]4CC[C@@]5(C)[C@H](CC[C@@H]6[C@@H]5C[C@@H](O)[C@]5(C)[C@@H](C7=CC(=O)OC7)CC[C@]65O)C4)O[C@@H]3C)O[C@@H]2C)C[C@H](O)[C@@H]1O` [digoxin], for which the TDP-43 aggregation result is “capable of reducing TDP-43 aggregation”.

Consider `CN1CC[C@H](c2c(O)cc(O)c3c(=O)cc(-c4ccccc4Cl)oc23)[C@H](O)C1` [flavopiridol], for which the TDP-43 aggregation result is reported as “capable of reducing TDP-43 aggregation”.

Take `CC(=O)O[C@H]1C[C@H](O[C@H]2[C@@H](O)C[C@H](O[C@H]3[C@@H](O)C[C@H](O[C@H]4CC[C@@]5(C)[C@H](CC[C@@H]6[C@@H]5C[C@@H](O)[C@]5(C)[C@@H](C7=CC(=O)OC7)CC[C@]65O)C4)O[C@@H]3C)O[C@@H]2C)O[C@H](C)[C@H]1O[C@@H]1O[C@H](CO)[C@@H](O)[C@H](O)[C@H]1O` [lanatoside C]: the TDP-43 aggregation result was “capable of reducing TDP-43 aggregation”.

Turning to `C[C@@H]1O[C@@H](O[C@@H]2C=C3CC[C@@H]4[C@H](CC[C@]5(C)[C@@H](c6ccc(=O)oc6)CC[C@]45O)[C@@]3(C)CC2)[C@H](O)[C@H](O)[C@H]1O` [proscillaridin A], the TDP-43 aggregation result is on record as “capable of reducing TDP-43 aggregation”. As to Cdk1/2 inhibitor III, the TDP-43 aggregation result is on record as “capable of reducing TDP-43 aggregation”.

The subject of a further series is WNT/β-catenin signaling pathway. As to conditions: Psychiatry patient iPSC-derived NPCs; 1,500 FDA-approved and known bioactive compounds; ref Zhao W.N. et al. (2012) J Biomol Screen.
`CNC(=O)c1cc2c(cn1)[nH]c1ccccc12` [FG7142]: the “WNT signaling (WNT reporter assay)” value was “Rescue of WNT signaling (WNT reporter assay)”. For the compound `O=c1c(O)c(-c2ccc(O)cc2)oc2cc(O)cc(O)c12` [Kaempferol], the “WNT signaling (WNT reporter assay)” value is on record as “Rescue of WNT signaling (WNT reporter assay)”. `Nc1nc2ccc(OC(F)(F)F)cc2s1` [Riluzole]: the “WNT signaling (WNT reporter assay)” value was “Rescue of WNT signaling (WNT reporter assay)”. Regarding `O=c1[nH]c(=O)n([C@H]2C[C@H](O)[C@@H](CO)O2)cc1C(F)(F)F` [Trifluridine], the “WNT signaling (WNT reporter assay)” value was “Rescue of WNT signaling (WNT reporter assay)”.

Still in this series, the particulars now being: human NPCs, 384-well; ~1,500 FDA-approved drugs and known bioactive compounds; ref [55].
In the case of `Nc1nc2ccc(OC(F)(F)F)cc2s1` [Riluzole], the “regulation of WNT signaling, luciferase-based WNT pathway reporter” value is reported as “regulators of WNT signaling”.

Another series deals with Human iPSC-derived sensory neurons. As to conditions: 2700 compounds; ref Stacey P. et al. (2018) SLAS Discov.
Consider `CN(C)CCC=C1c2ccccc2CCc2ccccc21` [Amitriptyline], for which the “veratridine-evoked calcium flux (excitability)” value (“veratridine-evoked calcium flux” below) is “Inhibition of veratridine-evoked calcium flux (excitability) assay”.

Take `COc1ccc(CCN2CCC(Nc3nc4ccccc4n3Cc3ccc(F)cc3)CC2)cc1` [Astemizole]: the “veratridine-evoked calcium flux” value is on record as “Inhibition of veratridine-evoked calcium flux (excitability) assay”. Consider `CNCCC(Oc1ccc(C(F)(F)F)cc1)c1ccccc1` (stereo not shown) [Fluoxetine], for which the “veratridine-evoked calcium flux” value was “Inhibition of veratridine-evoked calcium flux (excitability) assay”. On to `CN(C)C(=O)C(CCN1CCC(O)(c2ccc(Cl)cc2)CC1)(c1ccccc1)c1ccccc1` [Loperamide], for which the “veratridine-evoked calcium flux” value is on record as “Inhibition of veratridine-evoked calcium flux (excitability) assay”.

In the case of `CN[C@H]1CC[C@@H](c2ccc(Cl)c(Cl)c2)c2ccccc21` [Sertraline], the “veratridine-evoked calcium flux” value is recorded as “Inhibition of veratridine-evoked calcium flux (excitability) assay”.

Another series relates to human iPSC-derived and Ngn2-induced cortical glutamatergic neurons. The settings on record: top hits of LOPAC screen (1,280 bioactive small molecules); ref [86].
`Clc1cccc(Cl)c1N=C1NCCN1` [clonidine]: the tau levels entry is given as “reduced tau levels”.

On to `Cc1cccc([C@H](C)c2cnc[nH]2)c1C` [dexmedetomidine], for which the tau levels result is reported as “reduced tau levels”. Regarding `CC(C)NCC(O)c1ccc(O)c(O)c1` (stereo not shown) [isoproterenol], the tau levels result was “reduced tau levels”.

As to `CC(C)NCC(O)c1cc(O)cc(O)c1` (stereo not shown) [metaproterenol], the tau levels result is “reduced tau levels”. In the case of `COc1nc(C)nc(Cl)c1N=C1NCCN1` [moxonidine], the tau levels result is recorded as “reduced tau levels”.
